ChEMBL document CHEMBL1781964, “Exploring molecular shape analysis of styrylquinoline derivatives as HIV-1 integrase inhibitors” (Eur J Med Chem, 2008)

Target: Human immunodeficiency virus type 1 integrase (Human immunodeficiency virus 1, UniProt Q7ZJM1)
Assay: Inhibition of HIV1 integrase 3' processing activity

Sequence of Human immunodeficiency virus type 1 integrase (Q7ZJM1 whole entry): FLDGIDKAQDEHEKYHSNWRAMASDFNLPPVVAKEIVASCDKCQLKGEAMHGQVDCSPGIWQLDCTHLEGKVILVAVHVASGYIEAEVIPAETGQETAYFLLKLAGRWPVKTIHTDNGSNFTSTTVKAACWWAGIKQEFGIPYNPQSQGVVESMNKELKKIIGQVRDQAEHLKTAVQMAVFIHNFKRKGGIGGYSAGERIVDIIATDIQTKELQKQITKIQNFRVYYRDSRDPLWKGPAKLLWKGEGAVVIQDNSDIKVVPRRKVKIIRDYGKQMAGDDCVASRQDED

Structure (SMILES) | IC50
Oc1ccc(/C=C/c2ccc3c(Cl)cc(Cl)c(O)c3n2)cc1O | 100 µM
Nc1cccc2ccc(/C=C/c3ccc(O)c(O)c3)nc12 | 100 µM
Oc1cccc2ccc(/C=C/c3ccc4cccc(O)c4n3)nc12 | 100 µM
Cc1cc(/C=C/c2ccc3ccc(C(=O)O)c(O)c3n2)ccc1O | 2.82 µM
Cc1ccc2cccc(OC(=O)/C=C/c3ccc(O)c(O)c3)c2n1 | 100 µM
CC(=O)Oc1cccc2ccc(/C=C/c3ccccc3)nc12 | 100 µM
COC(=O)c1ccc2ccc(/C=C/c3ccc(O)c(O)c3)nc2c1O | 100 µM
Oc1cccc2ccc(/C=C/c3ccccc3)nc12 | 100 µM
Cc1ccc2ccc(C(=O)O)c(O)c2n1 | 100 µM
O=[N+]([O-])c1cccc2ccc(/C=C/c3ccc(O)c(O)c3)nc12 | 100 µM
O=C(O)c1ccc2ccc(/C=C/c3ccc(O)c(O)c3O)nc2c1O | 0.302 µM
Oc1ccc(/C=C/c2ccc3ccccc3n2)cc1O | 100 µM
COc1ccc(/C=C/C(=O)Oc2cccc3ccc(C)nc23)cc1OC | 100 µM
CC(=O)Oc1ccc(/C=C/c2ccc3cccc(OC(C)=O)c3n2)cc1OC(C)=O | 100 µM
Cc1ccc2cccc(O)c2n1 [8-HYDROXY QUINALDINE] | 100 µM
